The term EC50 denotes the midpoint of the concentration-response curve.

In series [1] the target is T1, human calcitonin receptor (hCTR2) (Homo sapiens, UniProt P30988).
T1 construct: expressed in transfected cells
T1 sequence (P30988 25-474): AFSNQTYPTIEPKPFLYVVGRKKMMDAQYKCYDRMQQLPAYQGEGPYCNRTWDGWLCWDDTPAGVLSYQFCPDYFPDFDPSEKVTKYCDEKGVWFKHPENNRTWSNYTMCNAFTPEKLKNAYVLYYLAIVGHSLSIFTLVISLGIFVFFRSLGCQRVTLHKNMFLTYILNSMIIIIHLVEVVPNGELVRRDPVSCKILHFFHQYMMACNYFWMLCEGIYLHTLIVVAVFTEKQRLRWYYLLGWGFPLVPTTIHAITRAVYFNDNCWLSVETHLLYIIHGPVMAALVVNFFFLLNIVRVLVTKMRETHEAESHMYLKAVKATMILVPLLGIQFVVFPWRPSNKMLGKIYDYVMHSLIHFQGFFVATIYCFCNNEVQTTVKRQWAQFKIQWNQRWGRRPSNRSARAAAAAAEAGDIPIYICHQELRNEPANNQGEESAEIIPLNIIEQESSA
In words: hCTR2 assay: induction of cAMP (AlphaScreen cAMP Assay kit) in COS7 cells expressing hCTR2. Type of series: cell-based. In a few lines: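 Peptide-induced cAMP in hCTR2-expressing COS7 cells, 15 min at 37° C with phosphodiesterase inhibitor IBMX (100 µM), detected by AlphaScreen; potency from 4PL curves.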
Background: Bead proximity is the source of the signal in Alpha formats.

In series [2] the target is T2, human amylin receptor 3 (hAMYR3) consisting of hCTR2 co-expressed with human Receptor Activity Modifying Protein 3 (hRAMP3) (Homo sapiens, UniProt O60896+P30988).
T2 construct: expressed in transfected cells
T2 sequence (P30988 25-474): T1 sequence (P30988 25-474)
T2 sequence (O60896 24-148 partner): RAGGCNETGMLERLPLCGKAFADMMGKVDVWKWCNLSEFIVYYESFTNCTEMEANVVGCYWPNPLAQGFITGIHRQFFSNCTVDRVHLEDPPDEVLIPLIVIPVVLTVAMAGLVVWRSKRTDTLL
In words: hAMYR3 assay: induction of cAMP (AlphaScreen cAMP Assay kit) in COS7 cells expressing hAMYR3. The series is classed as cell-based. In a few lines:
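cAMP accumulation read by AlphaScreen in lysates of RAMP-naive COS7 cells stably transfected with hCTR2 plus hRAMP3. Cells exposed to peptide dilutions for 15 min, 37° C, with 100 µM IBMX; 4PL fitting gave EC50 and efficacy relative to pramlintide.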

The nature of series [3]: Solubility assessment (turbidity absorbance at 325 nm). The series is classed as physicochemical. The following applies: stock 2 mg/ml diluted 1:1, ambient temperature (typically 25°C), n=1; for Solubility, Acetate buffer pH 4: 100 mM acetate buffer pH 4.0; for Solubility, Acetate buffer pH 5: 100 mM acetate buffer pH 5.0; for Solubility, Histidine buffer pH 6: 100 mM histidine buffer pH 6.0; for Solubility, Histidine buffer pH 7: 100 mM histidine buffer pH 7.0; for Solubility, Phosphate buffer pH 6: 100 mM phosphate buffer pH 6.0; for Solubility, Phosphate buffer pH 7: 100 mM phosphate buffer pH 7.0; for Solubility, Phosphate buffer pH 7.5: 100 mM phosphate buffer pH7.5. In outline:
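Read-out: turbidity as absorbance at 325 nm (280 nm also read), single samples, ambient temperature of typically 25°C. Samples were a 1:1 mix of 2 mg/ml stock (water, pH 2.5) with 100 mM acetate, histidine or phosphate buffers spanning pH 4.0–7.5. Cut-off: A325 ≤ 0.02 indicates ≥ 1 mg/ml.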

Numbered stars: 1 amine (or outer) side, 2 acyl side, 3 side chain; on linkers, the order of the positions; unused ones are H or OH. Bridge positions count the residues as written; N and C are the ends. Square brackets hold non-standard residues; d marks the D form. Peptide text beside a SMILES is read from it. * marks the point of attachment. C20 diacid = O=C(O)CCCCCCCCCCCCCCCCCCC(=O)*; γGlu = O=C(O)[C@H](CCC(=O)[*:2])N[*:1]; NMeI = CC[C@H](C)[C@H](NC)C(=O)O; Sar = CNCC(=O)O

On to `CC[C@H](C)[C@@H](C(=O)N[C@@H](CC(C)C)C(=O)N[C@@H](CO)C(=O)N[C@@H](CO)C(=O)N[C@H](C(=O)N[C@@H](CC(N)=O)C(=O)N[C@H](C(=O)NCC(=O)N[C@@H](CO)C(=O)N[C@@H](CC(N)=O)C(=O)N[C@H](C(=O)NCC(N)=O)[C@@H](C)O)C(C)C)[C@@H](C)O)N(C)C(=O)[C@H](C)NC(=O)CN(C)C(=O)[C@H](Cc1ccccc1)NC(=O)[C@H](CC(N)=O)NC(=O)[C@H](CC(N)=O)NC(=O)[C@H](CO)NC(=O)[C@H](CO)NC(=O)[C@H](CCCNC(=N)N)NC(=O)[C@H](Cc1c[nH]cn1)NC(=O)[C@H](CC(C)C)NC(=O)[C@H](Cc1ccccc1)NC(=O)[C@H](CCC(=O)O)NC(=O)[C@H](C)NC(=O)[C@H](CC(C)C)NC(=O)[C@H](CCCNC(=N)N)NC(=O)[C@H](CCC(N)=O)NC(=O)[C@@H](NC(=O)[C@H](C)NC(=O)[C@@H]1CSSC[C@H](NC(=O)[C@H](CCCNC(=N)N)NC(=O)CC[C@H](NC(=O)CCCCCCCCCCCCCCCCCCC(=O)O)C(=O)O)C(=O)N[C@@H](CC(N)=O)C(=O)N[C@@H]([C@@H](C)O)C(=O)N[C@@H](C)C(=O)N[C@@H]([C@@H](C)O)C(=O)N1)[C@@H](C)O` [Compound 96, [19CD]-isoGlu-RC()NTATC()ATQRLAEFLHRSSNNF-Gly(Me)-A-Ile(Me)-LSSTNVGSNTG-NH2] ({C20 diacid-γGlu}-RCNTATCATQRLAEFLHRSSNNF[Sar]A[NMeI]LSSTNVGSNTG-NH2; disulfide 2-7), for which the EC50 in series [1] was 0.34 nM. Further, the EC50 in series [2] turned out to be 5.6 nM. Also, in series [3], the “Solubility, Acetate buffer pH 4” value was “SS (SS indicates solubility ≥ 1mg/ml)”; the “Solubility, Acetate buffer pH 5” value is “SS (SS indicates solubility ≥ 1mg/ml)”; the “Solubility, Histidine buffer pH 6” value is reported as “SS (SS indicates solubility ≥ 1mg/ml)”; the “Solubility, Histidine buffer pH 7” value is reported as “SS (SS indicates solubility ≥ 1mg/ml)”. In series [3], the “Solubility, Phosphate buffer pH 6” value is given as “SS (SS indicates solubility ≥ 1mg/ml)”; the “Solubility, Phosphate buffer pH 7” value is “SS (SS indicates solubility ≥ 1mg/ml)”; the “Solubility, Phosphate buffer pH 7.5” value is recorded as “SS (SS indicates solubility ≥ 1mg/ml)”.

As for `CC[C@H](C)[C@@H](C(=O)N[C@@H](CC(C)C)C(=O)N[C@@H](CO)C(=O)N[C@@H](CO)C(=O)N[C@H](C(=O)N[C@@H](CC(N)=O)C(=O)N[C@H](C(=O)NCC(=O)N[C@@H](CO)C(=O)N[C@@H](CC(N)=O)C(=O)N[C@H](C(=O)N[C@@H](C)C(N)=O)[C@@H](C)O)C(C)C)[C@@H](C)O)N(C)C(=O)[C@H](C)NC(=O)CN(C)C(=O)[C@H](Cc1ccccc1)NC(=O)[C@H](CC(N)=O)NC(=O)[C@H](CC(N)=O)NC(=O)[C@H](CO)NC(=O)[C@H](CO)NC(=O)[C@H](CCCNC(=N)N)NC(=O)[C@H](Cc1c[nH]cn1)NC(=O)[C@H](CC(C)C)NC(=O)[C@H](Cc1ccccc1)NC(=O)[C@H](CCC(=O)O)NC(=O)[C@H](C)NC(=O)[C@H](CC(C)C)NC(=O)[C@H](CCCNC(=N)N)NC(=O)[C@H](CCC(N)=O)NC(=O)[C@@H](NC(=O)[C@H](C)NC(=O)[C@@H]1CSSC[C@H](NC(=O)[C@H](CCCNC(=N)N)NC(=O)CC[C@H](NC(=O)CCCCCCCCCCCCCCCCCCC(=O)O)C(=O)O)C(=O)N[C@@H](CC(N)=O)C(=O)N[C@@H]([C@@H](C)O)C(=O)N[C@@H](C)C(=O)N[C@@H]([C@@H](C)O)C(=O)N1)[C@@H](C)O` [Compound 97, [19CD]-isoGlu-RC()NTATC()ATQRLAEFLHRSSNNF-Gly(Me)-A-Ile(Me)-LSSTNVGSNTA-NH2] ({C20 diacid-γGlu}-RCNTATCATQRLAEFLHRSSNNF[Sar]A[NMeI]LSSTNVGSNTA-NH2; disulfide 2-7), in series [1], the EC50 was determined as 0.33 nM. The EC50 in series [2] turned out to be 0.68 nM. Further, in series [3], the “Solubility, Acetate buffer pH 4” value is listed as “SS (SS indicates solubility ≥ 1mg/ml)”; the “Solubility, Acetate buffer pH 5” value is given as “SS (SS indicates solubility ≥ 1mg/ml)”; the “Solubility, Histidine buffer pH 6” value is recorded as “SS (SS indicates solubility ≥ 1mg/ml)”; the “Solubility, Histidine buffer pH 7” value is listed as “SS (SS indicates solubility ≥ 1mg/ml)”. Further, in series [3], the “Solubility, Phosphate buffer pH 6” value is “SS (SS indicates solubility ≥ 1mg/ml)”; the “Solubility, Phosphate buffer pH 7” value is on record as “SS (SS indicates solubility ≥ 1mg/ml)”; the “Solubility, Phosphate buffer pH 7.5” value was “SS (SS indicates solubility ≥ 1mg/ml)”.

On to `CC[C@H](C)[C@@H](C(=O)N[C@@H](CC(C)C)C(=O)N[C@@H](CO)C(=O)N[C@@H](CO)C(=O)N[C@H](C(=O)N[C@@H](CC(N)=O)C(=O)N[C@H](C(=O)NCC(=O)N[C@@H](CO)C(=O)N[C@@H](CC(N)=O)C(=O)N[C@H](C(=O)N[C@H](C(N)=O)C(C)C)[C@@H](C)O)C(C)C)[C@@H](C)O)N(C)C(=O)[C@H](C)NC(=O)CN(C)C(=O)[C@H](Cc1ccccc1)NC(=O)[C@H](CC(N)=O)NC(=O)[C@H](CC(N)=O)NC(=O)[C@H](CO)NC(=O)[C@H](CO)NC(=O)[C@H](CCCNC(=N)N)NC(=O)[C@H](Cc1c[nH]cn1)NC(=O)[C@H](CC(C)C)NC(=O)[C@H](Cc1ccccc1)NC(=O)[C@H](CCC(=O)O)NC(=O)[C@H](C)NC(=O)[C@H](CC(C)C)NC(=O)[C@H](CCCNC(=N)N)NC(=O)[C@H](CCC(N)=O)NC(=O)[C@@H](NC(=O)[C@H](C)NC(=O)[C@@H]1CSSC[C@H](NC(=O)[C@H](CCCNC(=N)N)NC(=O)CC[C@H](NC(=O)CCCCCCCCCCCCCCCCCCC(=O)O)C(=O)O)C(=O)N[C@@H](CC(N)=O)C(=O)N[C@@H]([C@@H](C)O)C(=O)N[C@@H](C)C(=O)N[C@@H]([C@@H](C)O)C(=O)N1)[C@@H](C)O` [Compound 98, [19CD]-isoGlu-RC()NTATC()ATQRLAEFLHRSSNNF-Gly(Me)-A-Ile(Me)-LSSTNVGSNTV-NH2] ({C20 diacid-γGlu}-RCNTATCATQRLAEFLHRSSNNF[Sar]A[NMeI]LSSTNVGSNTV-NH2; disulfide 2-7), for which the EC50 in series [1] came to 0.35 nM. The same compound showed an EC50 in series [2] of 1.7 nM. In series [3], the “Solubility, Acetate buffer pH 4” value is given as “SS (SS indicates solubility ≥ 1mg/ml)”; the “Solubility, Acetate buffer pH 5” value was “SS (SS indicates solubility ≥ 1mg/ml)”; the “Solubility, Histidine buffer pH 6” value is given as “SS (SS indicates solubility ≥ 1mg/ml)”; the “Solubility, Histidine buffer pH 7” value is recorded as “SS (SS indicates solubility ≥ 1mg/ml)”. In series [3], the “Solubility, Phosphate buffer pH 6” value was “II (II indicates solubility ≤ 1 mg/ml)”; the “Solubility, Phosphate buffer pH 7” value was “SS (SS indicates solubility ≥ 1mg/ml)”; the “Solubility, Phosphate buffer pH 7.5” value is reported as “SS (SS indicates solubility ≥ 1mg/ml)”.
